Measurements taken from US12263144B2, “Methods of treating IgA nephropathy with thiol-containing molecules” (Accubit LLC—Biotechnology, priority 2020, dated 2025).

Test system: glomerular human IgA1 deposition
Experiment: Passive mouse model of IgA deposition (human IgA1 injection), glomerular immunofluorescence and blood IgA1
Type: in vivo, BALB/c mice
Conditions: mice, 200 mg/kg s.c. 2 h before human IgA1 injection, n=6; buffer 2293±163
Experimental: To establish the passive rat model, 5 mg/kg.BW recombinant rat rIgA, which contained a fraction of poly-rIgA, were i.v. injected daily to six 14-weeks old male Wistar rats (Charles River Labs, USA) for 5 consecutive days. Every day, three rats in each group had received a subcutaneous dose of either 250 mg/kg cysteamine, or buffer control, two hours before the rIgA injection. Twenty-four hours after the last injection of rIgA, kidneys were collected for immunofluorescence detection of deposits with goat-anti-rat IgA antibody (Cat: STAR111, Biorad laboratory). Similarly, a passive IgA nephrophathy mouse model was established by injecting 35 mg/kg purified human IgA1 in BALB/c mice (Charles River Labs). Two hours before IgA1 injection, six mice in each experimental group had each received a pretreatment dose of either 200 mg/kg cysteamine, or PBS, via subcutaneous injection. Two and a half hours after human IgA1 injection, kidneys were harvested, and specimens were stained with FITC-conjugated anti-human IgA antibody (Cat: 2050-02, SouthernBiotech). Plasma samples were collected at 0.5 h, 1 h and 2 h after IgA1 injection of all mice.
Frozen tissues were sectioned at 4 μm for IgA detection using goat anti-rat IgA (Cat: STAR111, Bio-Rad Laboratories) at 1:100, or anti-human IgA antibody (Cat: 2050-02, […]) at 1:80 dilution. […]

With NCCS [cysteamine] the “glomerular IgA1 intensity (Mean±SEM)” value was 870±193.
